“Also recorded” adds a separate entry of the source. No end group written: not given here.
Tests used:
DMC1 ΔN loop mutant = target: T1, DMC1 ΔN loop mutant (Homo sapiens, UniProt Q14565, A148D/A183D/D180S/D182S/G147I/G149R/G153E/H181G/N178G/P152G/V179L/Y151G); assay: Microscale thermophoresis (MST), BRCA2 peptide and DMC1 ΔN loop mutant; format: binding; conditions: labelled DMC1 ΔN loop mutant 150 nM; pH 8.0
T1 construct: DMC1 ΔN (83-340) were cloned into pHAT4; made in house
T1 sequence (Q14565 83-340 G147I/A148D/G149R/Y151G/P152G/G153E/N178G/V179L/D180S/H181G/D182S/A183D limits assumed): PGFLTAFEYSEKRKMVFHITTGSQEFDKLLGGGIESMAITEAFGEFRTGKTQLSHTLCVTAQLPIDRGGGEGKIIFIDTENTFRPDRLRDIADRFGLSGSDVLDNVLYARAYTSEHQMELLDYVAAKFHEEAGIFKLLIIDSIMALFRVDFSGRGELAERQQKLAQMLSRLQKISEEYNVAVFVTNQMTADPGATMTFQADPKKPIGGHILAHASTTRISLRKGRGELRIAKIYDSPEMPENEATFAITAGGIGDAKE
Description: DMC1 ΔN and DMC1 ΔN loop mutant were labelled in 10 mM HEPES pH 8.0, 150 mM NaCl with an amine reactive fluorescent dye (MonolithTM Protein Labelling Kit BLUE-NHS, Nanotemper GmbH). A serial dilution of titrant (peptide) was prepared in 10 mM HEPES pH 8.0, 150 mM NaCl, 0.05 % Tween-20. The concentration of labelled DMC1 ΔN or DMC1 ΔN loop mutant were constant at 150 nM and the concentration of the interacting peptide was titrated in 1:1 dilutions starting from 750 µM. An equal volume (10 µl) of the serial dilution and of the diluted labelled DMC1 were mixed and loaded in glass capillaries (MonolithTM NT.115 MST Premium Coated Capillaries, Nanotemper GmbH). The initial fluorescence and the thermophoretic mobility were measured on a Monolith NT.115 system (NanoTemper Technologies). […]
As a change in initial fluorescence was detected, SDS denaturation (SD) tests were performed according to the manufacturer’s instructions to determine whether these changes were ligand-induced and whether the data could therefore be used to derive affinity measurements. […] After incubating each for 5 minutes at 95 °C to denature the proteins and subject to brief centrifugation, the samples were loaded onto Premium Coated Capillaries and their initial fluorescence measurements recorded. […] Initial fluorescence readings were used to derive binding affinities.

[1] = system: DMC1 V179E-ssDNA filaments; assay: EMSA, super-shift of filaments formed using DMC1 V179E; format: biochemical, human
Description: (§1) To form nucleoprotein filaments, DMC1 and RAD51 was incubated with fluorescent 100-base ssDNA (5’-FAM- […]-3’) at the concentrations indicated in the figures for 30 minutes at 4 °C in reaction buffer. For DMC1, reaction buffer is 25 mM TEA (triethanolamine) pH 7.5, 1 mM ATP, 2 mM MgCl2, 0.1 mg/ml BSA, 2 mM DTT, 200 mM KCl. For RAD51, reaction buffer is 50 mM TEA (triethanolamine), 2 mM ATP, 0.5 mM MgCl2, 2 mM DTT. For assays requiring incomplete nucleoprotein filament assembly, the reaction buffer consisted of 50 mM TAE (tris, acetate, EDTA) pH 7.5, 2 mM ATP, 2 mM MgCl2, 2 mM DTT. In nucleoprotein formation stimulation assays or supershift experiments, BRCA2Ex14 or BRCA2Ex14-AAA were added for a further 30 min at 4 °C. […] Glycerol was added at a final concentration of 3%, and samples were analysed by electrophoresis on a 1% (w/v) (for DMC1) or 0.66% (w/v) (for RAD51) agarose gel in 0.5x TAE pH 8.0 at 20–40 V for ~4 h at 4 °C. DNA was detected by FAM using a Typhoon^TM FLA 9500 (GE Healthcare), with 473 nm laser at excitation wavelength 490 nm and emission wavelength 520 nm, using the LPB filter and a PMT voltage of 500 V. To analyse RAD51 nucleoprotein filaments assembled upon 100-base poly(dT) ssDNA, gels were stained post-run using SYBR^TM Gold Nucleic Acid Gel Stain (Invitrogen) and detected using a Typhoon^TM FLA 9500 (GE Healthcare).

DMC1 ΔN F85E = assay: Amylose pull-down of His-DMC1 ΔN F85E (monomeric) with MBP-BRCA2 fusions; format: binding, human; conditions: lysates mixed; MBP-BRCA2 fusion; 20 mM Tris pH 8.0, 500 mM KCl, 2 mM DTT
Description: For affinity experiments involving DMC1 ΔN V179E and F85E, MBP-fusions of BRCA2 fragments (Ex14, amino-acids 2387-2420, Ex14-Tr, amino acids 2401-2414, BRC4, amino acids 1519-1551) were cloned into pMAT11 vectors and DMC1 ΔN mutants (V179E or F85E) were cloned into pHAT4 vectors. Lysates of bacterial cultures expressing His6-DMC1 mutants or MBP-BRCA2 constructs were mixed, and complexes were purified through amylose affinity chromatography in 20 mM Tris pH 8.0, 500 mM KCl, 2 mM DTT and eluted using 30 mM D-maltose.

DMC1-ssDNA filaments = assay: EMSA, protection of DMC1-ssDNA filaments from BRC4-mediated disruption; format: biochemical, human; conditions: 10-fold excess of BRC4
Description: Finally, we tested whether binding of BRCA2 Ex14 protects DMC1-ssDNA nucleoprotein filaments from BRC4-mediated disruption (Fig. 3c). […] Further, whilst the core PhePP interaction site is sufficient to stimulate DMC1-ssDNA nucleoprotein filament formation, surrounding amino-acids that are present within Ex14 (but not Ex14-Tr) are necessary to super-shift filaments and confer protection from BRC4-mediated disruption.
as §1

[2] = system: RAD51 L180E-ssDNA filaments; assay: EMSA, protection of RAD51 L180E-ssDNA filaments from BRC4-mediated disruption (random sequence ssDNA); format: biochemical; conditions: 100-nt random ssDNA
Description: as §1

RAD51-ssDNA filaments = assay: EMSA, protection of RAD51-ssDNA filaments from BRC4-mediated disruption (random sequence ssDNA); format: biochemical; conditions: 100-nt random ssDNA; 10-fold excess of Ex27
Description: as §1

Substance	interaction by MST (in words) (DMC1 ΔN loop mutant)	super-shift of DMC1 V179E-ssDNA filaments [1]	binding in pull-down (DMC1 ΔN F85E)	protection of DMC1-ssDNA filaments from BRC4-mediated disruption (DMC1-ssDNA filaments; 5-fold excess (55 μM) peptide)	protection of DMC1-ssDNA filaments from BRC4-mediated disruption (DMC1-ssDNA filaments; TEA pH 7.5 + KCl, Ex14 10-fold stoichiometric excess (110 μM))	protection of DMC1-ssDNA filaments from BRC4-mediated disruption (DMC1-ssDNA filaments; equimolar (11 μM) peptide)	protection of RAD51 L180E-ssDNA filaments from BRC4-mediated disruption [2]	protection of RAD51-ssDNA filaments from BRC4-mediated disruption (RAD51-ssDNA filaments)
ATRNEKMRHLITTGRPTKVFVPPFKTKSHFHRVE [Ex14]	not detectable; also recorded: abolished its ability to bind Ex14	The residual super-shift was the same; also recorded: only minimal super-shift	failed to interact; also recorded: no interaction	complete protection	protected against BRC4-mediated disruption; also recorded: protected filaments from disruption	some protection	–	–
Ex27: BRCA2 exon 27 PhePP peptide, amino acids 3270-3315 (ALDFLSRLPLPPPVSPICTFVSPAAQKAFQPPRSCGTKYETPIKKK; UniProt P51587 3270-3315, looked up, fragment)	–	–	–	–	–	–	not protected; also recorded: abrogated	less complete; also recorded: not complete; also recorded: protected against BRC4-mediated disruption

Reference: paper PMC11436757, “BRCA2 stabilises RAD51 and DMC1 nucleoprotein filaments through a conserved interaction mode” (Nature Communications, 2024)
